Laboratory results: DBAASP
In brackets after ≈: the same amount, converted by molar mass. Blank lines part the entries; values can stand above or below the molecule they belong to.

Legend:
Experiment in all cases: ≥ marks a high value that may be exact or a test limit, other limits are often not marked, values filed in µg/mL are converted to µM
[1] = test system: Bacillus subtilis NBRC 3009
[2] = test system: Escherichia coli NBRC 3972
[3] = test system: Staphylococcus aureus NBRC 13276
Candida albicans = test system: Candida albicans
[4] = test system: Pseudomonas aeruginosa ATCC 27853
[5] = test system: Staphylococcus aureus ATCC 49476
Staphylococcus aureus MR = test system: Staphylococcus aureus MR
[6] = test system: Escherichia coli NCTC 10418
[7] = test system: Staphylococcus aureus NCTC 12981
[8] = test system: Acinetobacter baumannii ATCC 17978
Bacillus cereus C737 = test system: Bacillus cereus C737
Bacillus cereus = test system: Bacillus cereus
[9] = test system: Candida albicans NCPF 3179
[10] = test system: Enterococcus faecalis NCTC 12201
[11] = test system: Enterococcus faecalis NCTC 775
[12] = test system: Escherichia coli NCTC 12923
Escherichia coli UB1005 = test system: Escherichia coli UB1005
Escherichia coli = test system: Escherichia coli
[13] = test system: Klebsiella pneumoniae NCTC 13368
Leuconostoc lactis = test system: Leuconostoc lactis
Listeria innocua = test system: Listeria innocua
Micrococcus luteus = test system: Micrococcus luteus
Pasteurella multocida = test system: Pasteurella multocida
[14] = test system: Pseudomonas aeruginosa NCTC 13437
[15] = test system: Pseudomonas aeruginosa PAO1
Staphylococcus aureus 15 = test system: Staphylococcus aureus 15
[16] = test system: Staphylococcus aureus ATCC 9144
Staphylococcus aureus = test system: Staphylococcus aureus
[17] = test system: Staphylococcus epidermidis
Streptococcus uberis = test system: Streptococcus uberis
[18] = test system: Batrachochytrium dendrobatidis
[19] = test system: Bifidobacterium longum subsp. infantis
[20] = test system: Acinetobacter baumannii ATCC 7978
[21] = test system: Klebsiella aerogenes ATCC 13048
[22] = test system: Staphylococcus aureus ATCC 29231
[23] = test system: Staphylococcus aureus MW2
[24] = test system: Candida albicans ATCC 10231
[25] = test system: Cryptococcus neoformans ATCC 32264
[26] = test system: Escherichia coli ATCC 25922
[27] = test system: Salmonella enterica subsp. enterica serovar Enteritidis
Salmonella sp. = test system: Salmonella sp.
[28] = test system: Staphylococcus aureus ATCC 29213
[29] = test system: Staphylococcus aureus ATCC 43300
Yersinia enterocolitica = test system: Yersinia enterocolitica

Compound: CC[C@H](C)[C@H](NC(=O)[C@H](C)NC(=O)[C@H](CO)NC(=O)[C@@H](NC(=O)[C@H](CC(C)C)NC(=O)CNC(=O)CNC(=O)[C@@H](NC(=O)[C@H](CC(C)C)NC(=O)[C@H](CO)NC(=O)[C@@H]1CCCN1C(=O)[C@H](CC(C)C)NC(=O)[C@H](Cc1ccccc1)NC(=O)[C@H](Cc1ccccc1)NC(=O)[C@@H](N)Cc1ccccc1)[C@@H](C)CC)C(C)C)C(=O)N[C@@H](CCCCN)C(N)=O [FFFLPSLIGGLVSAIK]
MIC [1]: 1.8 µM (≈ 3.08 µg/mL) | MIC [2]: ≥ 100 µM | MIC [3]: ≥ 35.4 µM

Compound: CC[C@H](C)[C@H](NC(=O)[C@H](C)NC(=O)[C@H](CCCCN)NC(=O)CNC(=O)[C@H](C)NC(=O)[C@H](CO)NC(=O)[C@H](Cc1ccccc1)NC(=O)[C@H](CC(C)C)NC(=O)CNC(=O)CNC(=O)[C@@H](NC(=O)[C@@H](NC(=O)[C@H](Cc1cnc[nH]1)NC(=O)[C@H](Cc1cnc[nH]1)NC(=O)[C@@H](NC(=O)[C@@H](N)Cc1ccccc1)[C@@H](C)CC)[C@@H](C)CC)[C@@H](C)CC)C(=O)N[C@@H](Cc1cnc[nH]1)C(=O)N[C@@H](CO)C(=O)N[C@@H](CC(C)C)C(=O)N[C@H](C(=O)N[C@@H](Cc1cnc[nH]1)C(=O)N[C@@H](CCCN=C(N)N)C(=O)N[C@@H](CCCN=C(N)N)C(=O)N[C@@H](CCCN=C(N)N)C(=O)N[C@@H](CCCN=C(N)N)C(=O)O)[C@@H](C)CC [FIHHIIGGLFSAGKAIHSLIHRRRR]
MIC (Candida albicans): 88.5 µM (≈ 256 µg/mL) | MIC [4]: 88.5 µM (≈ 256 µg/mL) | MIC [5]: 11.1 µM (≈ 32 µg/mL) | MIC (Staphylococcus aureus MR): 11.1 µM (≈ 32 µg/mL)

Compound: NCCCC[C@H](NC(=O)[C@H](Cc1ccccc1)NC(=O)[C@H](CCCCN)NC(=O)[C@@H](N)Cc1ccccc1)C(=O)N[C@@H](Cc1ccccc1)C(N)=O [FKFKF]
MIC [6]: ≥ 179 µM | MIC [7]: ≥ 179 µM

Compound: CC[C@H](C)[C@H](NC(=O)[C@H](CCC(N)=O)NC(=O)[C@H](Cc1cnc[nH]1)NC(=O)[C@@H](NC(=O)[C@@H]1CCCN1C(=O)[C@H](CC(N)=O)NC(=O)[C@H](CC(C)C)NC(=O)[C@@H](N)CC(C)C)[C@@H](C)O)C(=O)N[C@@H](Cc1ccc(O)cc1)C(=O)N1CCC[C@H]1C(=O)N[C@H](C(=O)N[C@H](C(=O)N[C@@H](CCC(N)=O)C(=O)N1CCC[C@H]1C(=O)N[C@@H](CC(C)C)C(=O)N[C@@H](C)C(=O)N1CCC[C@H]1C(=O)N[C@H](C(=O)N[C@@H](Cc1cnc[nH]1)C(=O)N[C@@H](CC(N)=O)C(=O)N1CCC[C@H]1C(=O)N[C@H](C(=O)N[C@@H](CO)C(=O)O)[C@@H](C)CC)C(C)C)[C@@H](C)O)C(C)C [LLNPTHQIYPVTQPLAPVHNPIS]
MIC [19]: ≥ 1180 µM | MIC (Escherichia coli): > 1180 µM | MIC (Staphylococcus aureus): > 1180 µM

Compound: CC[C@H](C)[C@H](NC(=O)[C@H](CCCCN)NC(=O)[C@H](Cc1c[nH]c2ccccc12)NC(=O)[C@@H](N)CC(C)C)C(=O)NCC(=O)N[C@@H](CCCCN)C(=O)N[C@@H](CCCCN)C(=O)N[C@H](C(=O)N[C@@H](Cc1c[nH]c2ccccc12)C(=O)N[C@@H](CCCN=C(N)N)C(=O)N[C@H](C(=O)NCC(=O)O)C(C)C)[C@@H](C)CC [LWKIGKKIWRVG]
MIC [20]: ≥ 86.3 µM | MIC [21]: ≥ 86.3 µM | MIC [22]: ≥ 86.3 µM | MIC [23]: ≥ 86.3 µM

Compound: NC(=O)CC[C@H](NC(=O)[C@H](Cc1c[nH]c2ccccc12)NC(=O)[C@H](Cc1c[nH]c2ccccc12)NC(=O)[C@H](CCCN=C(N)N)NC(=O)[C@H](CCCN=C(N)N)NC(=O)[C@H](Cc1c[nH]c2ccccc12)NC(=O)[C@H](CCC(N)=O)NC(=O)[C@@H](N)CCCN=C(N)N)C(=O)N[C@@H](CCCN=C(N)N)C(N)=O [RQWRRWWQR]
MIC [24]: 50 µM (≈ 72.8 µg/mL) | MIC [25]: 12.5 µM (≈ 18.2 µg/mL) | MIC [26]: 17.2 µM (≈ 25 µg/mL) | MIC (Escherichia coli): 8.58 µM (≈ 12.5 µg/mL) | MIC [27]: 8.58 µM (≈ 12.5 µg/mL) | MIC (Salmonella sp.): 17.2 µM (≈ 25 µg/mL) | MIC [28]: 34.3 µM (≈ 50 µg/mL) | MIC [29]: 17.2 µM (≈ 25 µg/mL) | MIC (Yersinia enterocolitica): 17.2 µM (≈ 25 µg/mL)

Further lines, results first:

MIC [8]: 4.85 µM (≈ 8 µg/mL) | MIC (Bacillus cereus C737): ≥ 77.6 µM | MIC (Bacillus cereus): 30.3 µM (≈ 50 µg/mL) | MIC [9]: 9.7 µM (≈ 16 µg/mL) | MIC [10]: ≥ 38.8 µM | MIC [11]: 27.4 µM (≈ 45.2 µg/mL) | MIC [12]: 9.7 µM (≈ 16 µg/mL) | MIC (Escherichia coli UB1005): ≥ 38.8 µM | MIC (Escherichia coli): > 60.6 µM | MIC [13]: ≥ 38.8 µM | MIC (Leuconostoc lactis): 7.27 µM (≈ 12 µg/mL) | MIC (Listeria innocua): 30.3 µM (≈ 50 µg/mL) | MIC (Micrococcus luteus): ≥ 60.6 µM | MIC (Pasteurella multocida): ≥ 60.6 µM | MIC [14]: ≥ 77.6 µM | MIC [15]: > 77.6 µM | MIC (Staphylococcus aureus 15): 19.4 µM (≈ 32 µg/mL) | MIC [16]: 4.85 µM (≈ 8 µg/mL) | MIC (Staphylococcus aureus): 30.3 µM (≈ 50 µg/mL) | MIC [17]: ≥ 60.6 µM | MIC (Streptococcus uberis): ≥ 60.6 µM
Compound: CC[C@H](C)[C@H](NC(=O)[C@H](CC(=O)O)NC(=O)[C@H](Cc1ccccc1)NC(=O)[C@H](CC(C)C)NC(=O)CN)C(=O)N[C@H](C(=O)N[C@@H](CCCCN)C(=O)N[C@@H](CCCCN)C(=O)N[C@H](C(=O)N[C@H](C(=O)NCC(=O)N[C@@H](C)C(=O)N[C@@H](Cc1ccccc1)C(=O)NCC(=O)N[C@@H](CO)C(=O)N[C@@H](CC(C)C)C(N)=O)C(C)C)C(C)C)C(C)C [GLFDIVKKVVGAFGSL]

MIC (Bacillus cereus): 30.9 µM (≈ 50 µg/mL) | MIC [18]: ≥ 200 µM | MIC (Escherichia coli): > 61.9 µM | MIC (Leuconostoc lactis): 3.71 µM (≈ 6 µg/mL) | MIC (Listeria innocua): 3.71 µM (≈ 6 µg/mL) | MIC (Micrococcus luteus): ≥ 61.9 µM | MIC (Pasteurella multocida): ≥ 61.9 µM | MIC (Staphylococcus aureus): > 61.9 µM | MIC [17]: 30.9 µM (≈ 50 µg/mL) | MIC (Streptococcus uberis): ≥ 61.9 µM
Compound: CC[C@H](C)[C@H](NC(=O)[C@H](CC(=O)O)NC(=O)[C@H](CC(C)C)NC(=O)[C@H](CC(C)C)NC(=O)CN)C(=O)N[C@H](C(=O)N[C@@H](CCCCN)C(=O)N[C@@H](CCCCN)C(=O)N[C@H](C(=O)N[C@H](C(=O)NCC(=O)N[C@@H](C)C(=O)N[C@@H](Cc1ccccc1)C(=O)NCC(=O)N[C@@H](CO)C(=O)N[C@@H](CC(C)C)C(N)=O)C(C)C)C(C)C)C(C)C [GLLDIVKKVVGAFGSL]
